From patent US20090264384A1, “INDOLE, BENZIMIDAZOLE, AND BENZOLACTAM BORONIC ACID COMPOUNDS, ANALOGS THEREOF AND METHODS OF USE THEREOF” (Nuada, Inc., priority 2004, published 2009)
One block for each compound: values may come before it.

Experiments:
Phosphodiesterase 1 = Phosphodiesterase 1 enzyme assay; type: biochemical, bovine; details: reference compound, Phosphodiesterase 1
Cytochrome P450 (CYP) [1] = molecular target: Cytochrome P450 (CYP) (Homo sapiens, UniProt P10635); assay: ADME-Tox: In vitro Metabolism (Cytochrome P450, fluorogenic substrates BFC, CEC, MFC); details: Hill coefficient, CYP2D6 Inhibition (7-MFC substrate)
Cytochrome P450 (CYP) (Homo sapiens, UniProt P10635), sequence (P10635 whole entry): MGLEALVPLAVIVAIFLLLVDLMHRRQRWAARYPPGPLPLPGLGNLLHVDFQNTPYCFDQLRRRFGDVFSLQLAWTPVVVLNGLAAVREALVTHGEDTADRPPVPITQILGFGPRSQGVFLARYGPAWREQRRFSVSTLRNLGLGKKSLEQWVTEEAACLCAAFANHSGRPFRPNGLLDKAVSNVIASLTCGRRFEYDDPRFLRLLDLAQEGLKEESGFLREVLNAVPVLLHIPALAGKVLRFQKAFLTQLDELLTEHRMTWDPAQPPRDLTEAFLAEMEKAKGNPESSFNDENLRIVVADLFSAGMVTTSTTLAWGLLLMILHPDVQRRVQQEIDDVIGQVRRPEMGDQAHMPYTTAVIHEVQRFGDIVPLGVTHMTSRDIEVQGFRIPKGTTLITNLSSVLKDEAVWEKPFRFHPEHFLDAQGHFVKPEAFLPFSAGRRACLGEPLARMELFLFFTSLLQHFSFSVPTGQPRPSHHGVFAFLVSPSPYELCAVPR

Cytochrome P450 (CYP) [2] = molecular target: Cytochrome P450 (CYP) (Homo sapiens, UniProt P11712); assay: as above; details: Hill coefficient, CYP2C9 Inhibition (7-MFC substrate)
Cytochrome P450 (CYP) (Homo sapiens, UniProt P11712), sequence (P11712 whole entry): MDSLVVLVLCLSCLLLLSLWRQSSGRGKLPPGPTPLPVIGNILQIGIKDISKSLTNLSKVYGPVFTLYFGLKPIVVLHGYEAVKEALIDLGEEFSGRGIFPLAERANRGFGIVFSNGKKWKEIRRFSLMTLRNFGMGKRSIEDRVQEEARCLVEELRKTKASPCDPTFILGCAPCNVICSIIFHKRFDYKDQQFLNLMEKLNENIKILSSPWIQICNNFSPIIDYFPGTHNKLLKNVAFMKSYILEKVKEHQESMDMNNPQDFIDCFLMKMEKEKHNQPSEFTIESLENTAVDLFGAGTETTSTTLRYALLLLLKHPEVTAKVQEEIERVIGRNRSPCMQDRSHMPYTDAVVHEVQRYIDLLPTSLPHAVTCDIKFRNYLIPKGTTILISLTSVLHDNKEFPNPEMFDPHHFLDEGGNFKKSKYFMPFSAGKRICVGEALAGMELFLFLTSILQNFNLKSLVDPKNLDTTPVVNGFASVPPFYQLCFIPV

Phosphodiesterase 3(h) = Phosphodiesterase 3(h) (Homo sapiens, UniProt Q14432); assay: Phosphodiesterase 3(h) enzyme assay; type: biochemical; details: Hill coefficient, Phosphodiesterase 3(h)
Phosphodiesterase 3(h), sequence (Q14432 674-1093 limits assumed): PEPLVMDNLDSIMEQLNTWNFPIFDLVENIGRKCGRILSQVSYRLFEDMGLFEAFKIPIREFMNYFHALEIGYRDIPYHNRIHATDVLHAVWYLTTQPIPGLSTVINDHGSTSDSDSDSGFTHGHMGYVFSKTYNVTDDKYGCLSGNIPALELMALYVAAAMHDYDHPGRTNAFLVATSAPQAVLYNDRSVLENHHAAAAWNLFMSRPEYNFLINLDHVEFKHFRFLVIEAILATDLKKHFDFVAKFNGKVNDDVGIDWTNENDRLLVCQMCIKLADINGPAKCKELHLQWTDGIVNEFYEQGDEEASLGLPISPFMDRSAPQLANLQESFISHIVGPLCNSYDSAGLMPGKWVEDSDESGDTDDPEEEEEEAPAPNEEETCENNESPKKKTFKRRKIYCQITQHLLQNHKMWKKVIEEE

α1 (non-selective) = α1 (non-selective) binding assay; set-up: species or system rat
[3] = molecular target: Catechol-O-methyl transferase; assay: Catechol-O-methyl transferase enzyme assay; type: biochemical, porcine; details: reference compound, Catechol-O-methyl transferase
Catechol-O-methyl transferase, sequence (Q99028 whole entry): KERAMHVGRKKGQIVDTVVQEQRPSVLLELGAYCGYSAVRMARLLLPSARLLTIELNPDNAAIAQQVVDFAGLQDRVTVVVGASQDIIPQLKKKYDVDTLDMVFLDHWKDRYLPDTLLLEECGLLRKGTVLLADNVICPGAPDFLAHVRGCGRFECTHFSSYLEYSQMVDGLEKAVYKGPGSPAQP

Cytochrome P450 (CYP) [4] = molecular target: Cytochrome P450 (CYP) (Homo sapiens, UniProt P05177)
Cytochrome P450 (CYP) (Homo sapiens, UniProt P05177), sequence (P05177 whole entry): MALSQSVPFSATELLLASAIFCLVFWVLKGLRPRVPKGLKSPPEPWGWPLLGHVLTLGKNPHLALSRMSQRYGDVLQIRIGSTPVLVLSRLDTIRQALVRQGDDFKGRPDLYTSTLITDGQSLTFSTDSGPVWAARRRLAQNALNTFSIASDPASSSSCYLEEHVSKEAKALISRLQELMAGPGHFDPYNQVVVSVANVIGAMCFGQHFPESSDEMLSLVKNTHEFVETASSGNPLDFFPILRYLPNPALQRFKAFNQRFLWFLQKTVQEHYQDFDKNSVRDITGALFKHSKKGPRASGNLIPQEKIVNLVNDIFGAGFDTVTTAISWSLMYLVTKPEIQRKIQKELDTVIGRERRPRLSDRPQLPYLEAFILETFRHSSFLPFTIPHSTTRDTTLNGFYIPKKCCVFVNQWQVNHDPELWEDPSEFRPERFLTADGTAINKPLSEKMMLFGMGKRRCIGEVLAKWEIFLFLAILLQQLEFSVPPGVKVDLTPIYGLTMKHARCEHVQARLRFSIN

Acetylcholinesterase(h) = molecular target: T1, Acetylcholinesterase(h) (Homo sapiens, UniProt P22303); assay: Acetylcholinesterase(h) enzyme assay; type: biochemical; details: Hill coefficient, Acetylcholinesterase(h)
T1 construct: host or cells: HEK-293 cells
T1 sequence (P22303 32-614): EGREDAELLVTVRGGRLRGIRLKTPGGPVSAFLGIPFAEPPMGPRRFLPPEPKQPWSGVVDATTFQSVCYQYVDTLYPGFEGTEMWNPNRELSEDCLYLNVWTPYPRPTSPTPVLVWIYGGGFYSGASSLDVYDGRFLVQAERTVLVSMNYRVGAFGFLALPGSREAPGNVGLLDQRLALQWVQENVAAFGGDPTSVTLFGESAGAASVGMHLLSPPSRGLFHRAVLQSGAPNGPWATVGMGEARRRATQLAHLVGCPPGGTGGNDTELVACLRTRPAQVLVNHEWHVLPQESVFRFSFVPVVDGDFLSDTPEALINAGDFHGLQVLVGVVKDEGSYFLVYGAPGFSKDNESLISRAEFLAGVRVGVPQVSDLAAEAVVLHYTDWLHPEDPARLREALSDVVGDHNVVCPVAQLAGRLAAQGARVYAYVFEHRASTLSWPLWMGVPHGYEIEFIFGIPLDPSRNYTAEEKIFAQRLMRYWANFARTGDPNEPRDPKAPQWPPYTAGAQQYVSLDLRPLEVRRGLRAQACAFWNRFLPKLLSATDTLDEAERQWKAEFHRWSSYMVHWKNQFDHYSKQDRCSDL

[5] = system: chronic colitis provoked by trinitrobenzene sulphonic acid (TNBS); assay: Rat model of chronic colitis provoked by TNBS over 14 days, treatment from Day 1; type: in vivo; details: 3 mg/kg i.v. on Day 1 and Day 7
From the text: In the chronic model of colitis, assessment of the colonic inflammation is made 14 days or longer, after the intracolonic challenge with TNBS (Boughton-Smith et al, 1988a, 1988b; Wallace et al, 1989; Rachmilewitz et al, 1989; Wallace and Keenan, 1990; Ameho et al, 1987; Sans et al, 1999; Sun et al, 2001; Maric et al, 2003; Moreels et al, 2004; Gonzalez et al, 2004). This model allows treatment with experimental agents to commence following the establishment of the colonic injury, typically 24 hours after the TNBS challenge (Galvez et al, 2000, Villegas, 2003, Gonzalez et al, 2004). The model should therefore identify the ability of the experimental compounds to accelerate the diminution of the inflammatory response and to promote healing of the colonic lesions. This model thus has relevance additional to the acute model, as the clinical correlate is the therapeutic intervention in patients with existing IBD not in remission or with flare-up, to reduce the crisis. This contrasts with the acute TNBS model where the compounds are administered one or two days prior to challenge, the clinical correlate being the use of prophylactic therapy to prevent flare-up and maintain remission in IBD patients.
In this current study, the low intracolonic challenge concentration of TNBS used in the acute studies was also used for the chronic study over a 14 day period. This concentration and timing was based on the findings from pilot studies where a range of concentrations of TNBS and treatment conditions were evaluated over a 14 day period. […].
The methods and protocol used were substantially similar to those in Example 39-40, with some differences described below.
TNBS Challenge. Male Wistar rats (average body weight, 210 g) were randomised into groups before commencement of the study. In all groups, including the non-challenged and non-treated absolute control group, food was withdrawn for 12 h before TNBS administration (i.e. overnight on Day −1), but the rats were allowed free access to drinking water.
On the morning of the day of challenge (Day 0, between 9.00 and 1 1.00 a.m.), the rats were transiently anaesthetised with ether and the TNBS solution (10 mg in 0.25 ml of 50% ethanol) was instilled approximately 6-8 cm into the colon using a soft plastic catheter inserted in the rat rectum. The rats were allowed to recover with free access to food and drinking water. At the end of the experiment, on the morning of Day 14, between 9.00 and 11.00), the colon was dissected, and the distal 8 cm photographed and immediately processed or stored appropriately for subsequent analyses.
The following primary parameters were measured in the study: macroscopic scoring of distal 8 cm of colon; myeloperoxidase levels in segments of distal 8 cm of colon; TNF-α levels in segments of distal 8 cm of colon.
In addition, the weight of the standard colonic segment was assessed as an indirect and non-specific marker of oedema. The body weight of the animals was also determined each evening of the study, starting on Day-1, and also on the morning of Day 14. The data is shown graphically as the % change from the weight on Day-1, prior to challenge.
Treatments. The TNBS challenged groups for study were: (a) Vehicle control 0.5% carboxy methyl cellulose (CMC) p.o., twice daily from Day; (b) CCI-7506 25 mg/kg, p.o., twice daily from Day 1 (50 mg/kg/day total); (c) CCI-7506 50 mg/kg, p.o., twice daily from Day 1 (100 mg/kg/day total); (d) CCI-7507 12.5 mg/kg, p.o., twice daily from Day 1 (25 mg/kg/day total); (e) CCI-7507 25 mg/kg, p.o., twice daily from Day 1(50 mg/kg/day total); […]; (g) Infliximab 3 mg/kg, single slow i.v. injection, on Day 1 and Day7.
The experimental compounds that were administered orally were given twice a day from Day 1, i.e. 24 h following TNBS administration, for the remainder of the 14 day experimental period. Infliximab was administered by slow i.v. injection of Day 1 and on Day 7. […]

TNBS colitis = details: single intravenous dose pre-treatment; 8 days after TNBS challenge; cited from earlier work
Phosphodiesterase 5(h) = molecular target: T2, Phosphodiesterase 5(h) (Homo sapiens, UniProt O76074); assay: Phosphodiesterase 5(h) enzyme assay; type: biochemical; details: Hill coefficient, Phosphodiesterase 5(h)
T2 construct: human platelets; from tissue; host or cells: human platelets

Compound: COc1nc2c([nH]1)c(=O)n(C)c(=O)n2CC(C)C [Example 8-methoxy-IBMX]
IC50 (Phosphodiesterase 1): 2.4 µM

Compound: C=C[C@H]1C[N@@]2CC[C@H]1C[C@@H]2[C@@H](O)c1ccnc2ccc(OC)cc12 [quinidine]
nH (Cytochrome P450 (CYP) [1]): 0.9

Compound: Nc1ccc(S(=O)(=O)Nc2ccnn2-c2ccccc2)cc1 [sulfaphenazole]
nH (Cytochrome P450 (CYP) [2]): 1.0

nH (Phosphodiesterase 3(h)): 0.8
Compound: Cc1[nH]c(=O)c(C#N)cc1-c1ccncc1 [milrinone]

nH (α1 (non-selective)): 1.6
Compound: COc1cc2nc(N3CCN(C(=O)c4ccco4)CC3)nc(N)c2cc1OC [prazosin, reference compound]

Compound: Ro 41-0960
IC50 [3]: 0.051 µM

nH (Cytochrome P450 (CYP) [4]): 0.6
Compound: Cc1nc2c([nH]1)c(=O)n(C)c(=O)n2Cc1ccco1 [furafylline]

Compound: CN(C)C(=O)Oc1cccc([N+](C)(C)C)c1 [neostigmine]
nH (Acetylcholinesterase(h)): 1.5

Compound: infliximab
macroscopic Damage Score ([5]; Day 14): reduced the damage score
reduction in colon weight ([5]; Day 14, vs CMC group): significant (P<0.05) reduction in colon weight
reduction in colonic MPO activity ([5]; Day 14, vs CMC group): significantly attenuated the increase in MPO
reduction in colonic TNF-α levels ([5]; Day 14, vs CMC group): significantly attenuated the increase in TNF-α levels
reduction in colonic lesion area (% of the total area measured) ([5]; Day 14, vs CMC group): significantly attenuated the area of injury
attenuation of TNBS-induced fall in body weight (% change of body weight at Day −1) ([5]; over 14 days, vs CMC group): significant on Day 2 and 3
macroscopic injury, colonic MPO and TNF-α levels (TNBS colitis): found to reduce the macroscopic injury, colonic MPO and TNF-α levels

nH (Phosphodiesterase 5(h)): 1.5
Compound: OCCN(CCO)c1nc(N2CCCCC2)c2nc(N(CCO)CCO)nc(N3CCCCC3)c2n1 [dipyridamole]
